From patent publication US20260250318A1, “COMPOSITIONS AND METHODS FOR CROSSING THE BLOOD BRAIN BARRIER” (VOYAGER THERAPEUTICS, INC., priority 2022, published 2026)

Columns and labels:
Settings in all cases: synthetic library passage 3, intravenous, relative to wild-type AAV9
[1] = system: brain, spinal cord, and DRG of the NHPs; assay: NGS fold enrichment of synthetic library (passage 3) in NHPs, first cross-species screen; format: in vivo, cynomolgus macaques (Macaca fascicularis)
Procedure, shortened: (§1)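 Synthetic capsid library (passage 3) was given intravenously […] to NHPs aged 2-4 years and to BALB/c and C57Bl/6 mice (n=3 each, 6-8 weeks). After about 28 days in vivo, tissue RNA was RT-PCR amplified and NGS-sequenced; values are fold enrichment per variant relative to wild-type AAV9.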

brain [2] = assay: NGS fold enrichment of synthetic library (passage 3) in BALB/c mice, first cross-species screen; format: in vivo
Procedure, shortened: as §1

brain [3] = assay: NGS fold enrichment of synthetic library (passage 3) in C57Bl/6 mice, first cross-species screen; format: in vivo
Procedure, shortened: as §1

[4] = RNA from spinal cord of NHPs, NGS
[5] = RNA from brain of BALB/c mice, NGS
[6] = RNA from brain of C57Bl/6 mice, NGS

| Sequence | Fold enrichment over AAV9 in the brain of NHPs ([1]; RNA from brain of NHPs, NGS) [fold] | Fold enrichment over AAV9 in the spinal cord of NHPs [1, 4] [fold] | Fold enrichment over AAV9 in the brain of Mice (BALB/c) (brain [2]; [5]) [fold] | Fold enrichment over AAV9 in the brain of Mice (C57Bl/6) (brain [3]; [6]) [fold] | Fold enrichment over AAV9 in the brain of NHPs ([1]; RNA NGS, brain of NHPs) [fold] | Fold enrichment over AAV9 in the spinal cord of NHPs ([1]; RNA NGS, spinal cord of NHPs) [fold] | Fold enrichment over AAV9 in the brain of Mice (BALB/c) (brain [2]; RNA NGS, brain of BALB/c mice) [fold] | Fold enrichment over AAV9 in the brain of Mice (C57Bl/6) (brain [3]; RNA NGS, brain of C57Bl/6 mice) [fold] |
| --- | --- | --- | --- | --- | --- | --- | --- | --- |
| GSGQNQQTTAATRM | 1.163 | 3.925 | 1.005 | 0.947 |  |  |  |  |
| GSGQNQQLQTLIRT |  |  |  |  | 1.538 | 1.425 | 0.514 | 0.813 |
| GSSRVPVSGQNQQT | 1.385 | 13.191 | 0.485 | 0.870 |  |  |  |  |
| GSGSDMSSWQNQQT |  |  |  |  | 1.651 | 0.175 | 0.303 | 0.281 |
| GSGQNQDHQNKQQT | 1.308 | 1.470 | 0.761 | 0.510 |  |  |  |  |
| GSGHNQQVRTAPNT |  |  |  |  | 1.885 | 1.022 | 0.580 | 1.006 |
| GSGQRSPVLPNQQT |  |  |  |  | 2.369 | 6.230 | 0.526 | 0.434 |
| GSGQNQQTSLSNTA |  |  |  |  | 1.959 | 1.186 | 1.182 | 1.567 |
| GSGQNQQVGGKTVT |  |  |  |  | 1.032 | 6.195 | 0.821 | 1.094 |
| GSGQNQAMTHGDQT | 1.257 | 1.878 | 0.259 | 0.357 |  |  |  |  |
| GSGQNQQSGTFLST |  |  |  |  | 1.090 | 5.673 | 0.742 | 1.021 |
| GAMVSHSSGQNQQT |  |  |  |  | 1.833 | 8.999 | 0.868 | 0.739 |
| GIMARDSSGQNQQT |  |  |  |  | 1.972 | 3.486 | 0.904 | 1.320 |
| GSLVSTQSGQNQQT | 1.305 | 1.293 | 0.650 | 1.282 |  |  |  |  |
| GSGQMVHTIGNQQT |  |  |  |  | 1.026 | 1.328 | 0.430 | 0.406 |
| GSGQMGRQAVNQQT |  |  |  |  | 1.554 | 1.529 | 0.411 | 0.535 |

| Sequence | Fold enrichment over AAV9 in the brain of NHPs ([1]; RNA from brain of NHPs, NGS) [fold] | Fold enrichment over AAV9 in the spinal cord of NHPs [1, 4] [fold] | Fold enrichment over AAV9 in the brain of Mice (BALB/c) (brain [2]; [5]) [fold] | Fold enrichment over AAV9 in the brain of Mice (C57Bl/6) (brain [3]; [6]) [fold] | Fold enrichment over AAV9 in the brain of NHPs ([1]; RNA NGS, brain of NHPs) [fold] | Fold enrichment over AAV9 in the spinal cord of NHPs ([1]; RNA NGS, spinal cord of NHPs) [fold] | Fold enrichment over AAV9 in the brain of Mice (BALB/c) (brain [2]; RNA NGS, brain of BALB/c mice) [fold] | Fold enrichment over AAV9 in the brain of Mice (C57Bl/6) (brain [3]; RNA NGS, brain of C57Bl/6 mice) [fold] |
| --- | --- | --- | --- | --- | --- | --- | --- | --- |
| GRGQNVSSVHRQQT |  |  |  |  | 5.404 | 0.000 | 0.691 | 1.206 |
| GGRIVSLSGQNQQT |  |  |  |  | 1.766 | 4.936 | 0.847 | 1.161 |
| GSGQSYTMTQNQQT |  |  |  |  | 2.136 | 6.755 | 0.231 | 0.297 |
| GSGQTQVLKSNQQT |  |  |  |  | 1.640 | 3.031 | 0.975 | 1.599 |
| GSTGSHSAGQNQHT |  |  |  |  | 3.717 | 0.285 | 0.850 | 1.190 |
| GSGMSPSTLQNQQT |  |  |  |  | 2.216 | 3.053 | 0.153 | 0.318 |
| GFNGSPSSGQNQQT |  |  |  |  | 2.609 | 12.197 | 0.924 | 2.338 |
| GSGYNQPHLQNQQT |  |  |  |  | 1.435 | 4.512 | 0.395 | 0.711 |
| GSGMPVILGQNQQT |  |  |  |  | 2.005 | 0.150 | 0.287 | 0.840 |
| GSGQNQQKSLNGNT | 1.275 | 8.573 | 0.851 | 0.586 |  |  |  |  |
| GSGQVYISTPNQQT | 1.367 | 0.000 | 0.282 | 0.859 |  |  |  |  |
| GSGQNQQYAGKILT |  |  |  |  | 1.112 | 0.300 | 0.431 | 1.078 |
| GSGHTNPTRQNQQT |  |  |  |  | 1.021 | 0.688 | 0.807 | 0.726 |
| GSGQASSKSANQQT | 1.339 | 1.138 | 0.175 | 0.500 |  |  |  |  |
| GSLMDVHRGQNQQT | 1.150 | 0.387 | 0.238 | 1.009 |  |  |  |  |
| GSLSTPSSGQNQQT |  |  |  |  | 2.159 | 1.279 | 0.669 | 1.094 |
